Results reported in PubChem BioAssay (NCI).
“And” between values parts separate entries of the source, which are not always exact repeats. Identical values can stand only once.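 Compound exposure: 48 hours, 5 concentrations, 96-well plates. GI50: concentration for 50% inhibition of growth. TGI denotes the concentration required for complete inhibition of growth.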

Columns and labels:
Test in all cases: inhibition of tumour cell growth, NCI panel, 48 h
SF-295 CNS = tested on: SF-295 CNS
IGROV1 ovarian = tested on: IGROV1 ovarian
786-0 renal = tested on: 786-0 renal
NCI-H460 lung = tested on: NCI-H460 lung
SW-620 colon = tested on: SW-620 colon
SK-OV-3 ovarian = tested on: SK-OV-3 ovarian
SR leukemia = tested on: SR leukemia
DU-145 prostate = tested on: DU-145 prostate
MDA-MB-435 = tested on: MDA-MB-435
BT-549 breast = tested on: BT-549 breast

Cc1c[nH]c2c1C13CC1CN(C(=O)c1cc4cc(NC(=O)c5cc6ccccc6o5)ccc4[nH]1)C3=CC2=O (stereo not given)
GI50 (SF-295 CNS): > 1.17 ng/mL
TGI (SF-295 CNS): < 0.001 µM
GI50 (IGROV1 ovarian): > 1.17 ng/mL
TGI (IGROV1 ovarian): 13.5 ng/mL
TGI (786-0 renal): < 0.001 µM
GI50 (NCI-H460 lung): > 1.17 ng/mL
TGI (NCI-H460 lung): < 0.001 µM
GI50 (SW-620 colon): > 1.17 ng/mL
TGI (SW-620 colon): 1.07 nM and 0.00324 µg/mL
GI50 (SK-OV-3 ovarian): > 1.17 ng/mL
TGI (SK-OV-3 ovarian): 218 ng/mL
TGI (SR leukemia): < 0.001 µM

COc1ccc2c(c1)CCC1C2CC[C@@]2(C)C1CC[C@@]2(O)CNC(=O)/C=C/c1ccc(O)c(OC)c1 (stereo not given in full)
GI50 (SF-295 CNS): 28.4 µM
TGI (SF-295 CNS): > 100 µM
GI50 (IGROV1 ovarian): 4.66 µM
TGI (IGROV1 ovarian): > 100 µM
GI50 (786-0 renal): 23.2 µM
TGI (786-0 renal): > 100 µM
GI50 (NCI-H460 lung): 4.02 µM
TGI (NCI-H460 lung): > 100 µM
GI50 (DU-145 prostate): 36.6 µM
TGI (DU-145 prostate): > 100 µM
GI50 (SW-620 colon): 58.4 µM
TGI (SW-620 colon): > 100 µM
GI50 (SK-OV-3 ovarian): 66.1 µM
TGI (SK-OV-3 ovarian): > 100 µM
GI50 (MDA-MB-435): 4.95 µM
TGI (MDA-MB-435): > 100 µM
GI50 (BT-549 breast): 16.2 µM
TGI (BT-549 breast): 75.7 µM

CC#C[C@@]1(O)CCCC[C@@H]1O
TGI (SF-295 CNS): > 100 µM
TGI (IGROV1 ovarian): > 100 µM
TGI (786-0 renal): > 100 µM
TGI (NCI-H460 lung): > 100 µM
TGI (SW-620 colon): > 100 µM
TGI (SK-OV-3 ovarian): > 100 µM

CC(CN=C(CC(=O)c1ccc(Br)cc1)c1ccccc1)N=C(CC(=O)c1ccc(Br)cc1)c1ccccc1 (stereo not given)
GI50 (SF-295 CNS): 29.2 µM
TGI (SF-295 CNS): > 100 µM
GI50 (IGROV1 ovarian): 3.37 µM
TGI (IGROV1 ovarian): > 100 µM
GI50 (786-0 renal): 4.2 µM
TGI (786-0 renal): > 100 µM
GI50 (NCI-H460 lung): 5.38 µM
TGI (NCI-H460 lung): > 100 µM
GI50 (DU-145 prostate): 64.4 µM
TGI (DU-145 prostate): > 100 µM
GI50 (SW-620 colon): > 100 µM
TGI (SW-620 colon): > 100 µM
GI50 (SK-OV-3 ovarian): 9.05 µM
TGI (SK-OV-3 ovarian): > 100 µM
GI50 (MDA-MB-435): 41.8 µM
TGI (MDA-MB-435): > 100 µM
GI50 (BT-549 breast): 42.1 µM
TGI (BT-549 breast): > 100 µM

Cc1cc(NS(=O)(=O)c2ccc(Nc3c4ccccc4nc4c(C(=O)Nc5ccc(S(=O)(=O)N=C(N)N)cc5)cccc34)cc2)no1
TGI (SF-295 CNS): > 100 µM
TGI (IGROV1 ovarian): > 100 µM
TGI (786-0 renal): > 100 µM
TGI (NCI-H460 lung): > 100 µM
TGI (SW-620 colon): > 100 µM
TGI (SK-OV-3 ovarian): > 100 µM

C=CN1C(=O)OC(c2ccccc2)C1c1ccccc1 (stereo not given)
TGI (SF-295 CNS): > 100 µM
GI50 (IGROV1 ovarian): > 100 µM
TGI (IGROV1 ovarian): > 100 µM
GI50 (786-0 renal): > 100 µM
TGI (786-0 renal): > 100 µM
GI50 (NCI-H460 lung): > 100 µM
TGI (NCI-H460 lung): > 100 µM
TGI (SW-620 colon): > 100 µM
GI50 (SK-OV-3 ovarian): > 100 µM
TGI (SK-OV-3 ovarian): > 100 µM
TGI (SR leukemia): > 100 µM

Nc1nc2c(ncn2C2OC(CO)C(O)C2N)c(=O)[nH]1 (stereo not given)
TGI (SF-295 CNS): > 100 µM
TGI (IGROV1 ovarian): > 100 µM
TGI (786-0 renal): > 100 µM
TGI (NCI-H460 lung): > 100 µM
TGI (SW-620 colon): > 100 µM
TGI (SK-OV-3 ovarian): > 100 µM

COC(=O)C1=C(OC)c2cc3c(cc2C(c2cc(OC)c(OC)c(OC)c2)C1C(=O)OC)OCO3 (stereo not given)
TGI (SF-295 CNS): > 100 µM
TGI (IGROV1 ovarian): > 100 µM
TGI (786-0 renal): > 100 µM
TGI (NCI-H460 lung): > 100 µM
TGI (SW-620 colon): > 100 µM
TGI (SK-OV-3 ovarian): > 100 µM
TGI (SR leukemia): > 100 µM

C(=N\Nc1nnc2c(n1)[nH]c1ccccc12)/c1cccnc1
TGI (SF-295 CNS): > 100 µM
TGI (IGROV1 ovarian): > 100 µM
TGI (786-0 renal): > 100 µM
TGI (NCI-H460 lung): > 100 µM
TGI (DU-145 prostate): > 100 µM
TGI (SW-620 colon): > 100 µM
TGI (SK-OV-3 ovarian): > 100 µM
TGI (MDA-MB-435): > 100 µM
TGI (BT-549 breast): > 100 µM

CC1=NNC(=NCCN(C)C)C/C1=C/c1ccccc1Cl
TGI (SF-295 CNS): > 100 µM
TGI (IGROV1 ovarian): > 100 µM
TGI (786-0 renal): > 100 µM
TGI (NCI-H460 lung): > 100 µM
TGI (SW-620 colon): > 100 µM
TGI (SK-OV-3 ovarian): > 100 µM

Cc1cnc[nH]c1=O
TGI (SF-295 CNS): > 100 µM
TGI (IGROV1 ovarian): > 100 µM
TGI (786-0 renal): > 100 µM
TGI (NCI-H460 lung): > 100 µM
TGI (SW-620 colon): > 100 µM
TGI (SK-OV-3 ovarian): > 100 µM
